Assay: Henry solubility constant Hcp at 298.15 K (mol/(m3 Pa))
Conditions: reference: Hiatt (2013)
In the case of `ClCC(Cl)(Cl)Cl` [1,1,1,2-tetrachloroethane], the “Henry solubility constant Hcp” value is reported as 0.0048. With `CC(Cl)(Cl)Cl` [1,1,1-trichloroethane] the “Henry solubility constant Hcp” value was 0.00069. In the case of `ClC(Cl)C(Cl)Cl` [1,1,2,2-tetrachloroethane], the “Henry solubility constant Hcp” value is reported as 0.033. In the case of `[2H]C([2H])(Cl)C([2H])(Cl)Cl` [1,1,2-trichloroethane-d3], the “Henry solubility constant Hcp” value is reported as 0.013. With `ClCC(Cl)Cl` [1,1,2-trichloroethane] the “Henry solubility constant Hcp” value was 0.014. For `C=C(Cl)Cl` [1,1-dichloroethene], the “Henry solubility constant Hcp” value was 0.00041. For `CC=C(Cl)Cl` [1,1-dichloropropene], the “Henry solubility constant Hcp” value was 0.00061. For `[2H]c1c([2H])c(Cl)c(Cl)c(Cl)c1[2H]` [1,2,3-trichlorobenzene-d3], the “Henry solubility constant Hcp” value was 0.015. For `Clc1cccc(Cl)c1Cl` [1,2,3-trichlorobenzene], the “Henry solubility constant Hcp” value was 0.015. For `ClCC(Cl)CCl` [1,2,3-trichloropropane], the “Henry solubility constant Hcp” value was 0.042. For `Cc1ccc(C)c(C)c1` [1,2,4-trimethylbenzene], the “Henry solubility constant Hcp” value was 0.0032. In the case of `ClCC(Br)CBr` (centres undefined) [1,2-dibromo-3-chloropropane], the “Henry solubility constant Hcp” value is reported as 0.097. With `[2H]C([2H])([2H])C([2H])(Cl)C([2H])([2H])Cl` (centres undefined) [1,2-dichloropropane-d6] the “Henry solubility constant Hcp” value was 0.0036. In the case of `CC(Cl)CCl` (centres undefined) [1,2-dichloropropane], the “Henry solubility constant Hcp” value is reported as 0.0043. For `[2H]c1c([2H])c([2H])c(C([2H])([2H])[2H])c(C([2H])([2H])[2H])c1[2H]` [1,2-dimethylbenzene-d10], the “Henry solubility constant Hcp” value was 0.003. In the case of `Cc1ccccc1C` [1,2-dimethylbenzene], the “Henry solubility constant Hcp” value is reported as 0.0032. For `Cc1cc(C)cc(C)c1` [1,3,5-trimethylbenzene], the “Henry solubility constant Hcp” value was 0.0023. In the case of `Clc1cccc(Cl)c1` [1,3-dichlorobenzene], the “Henry solubility constant Hcp” value is reported as 0.0052. For `ClCCCCl` [1,3-dichloropropane], the “Henry solubility constant Hcp” value was 0.013. With `Clc1ccc(Cl)cc1` [1,4-dichlorobenzene] the “Henry solubility constant Hcp” value was 0.0058. For `Fc1ccc(Br)cc1` [1-bromo-4-fluorobenzene], the “Henry solubility constant Hcp” value was 0.0053. For `Cc1ccc(Cl)cc1` [1-chloro-4-methylbenzene], the “Henry solubility constant Hcp” value was 0.0041. In the case of `Cc1ccc(C(C)C)cc1` [1-methyl-4-(1-methylethyl)-benzene], the “Henry solubility constant Hcp” value is reported as 0.0018. For `[2H]c1c([2H])c([2H])c2c(C([2H])([2H])[2H])c([2H])c([2H])c([2H])c2c1[2H]` [1-methylnaphthalene-d10], the “Henry solubility constant Hcp” value was 0.046. For `Cc1cccc2ccccc12` [1-methylnaphthalene], the “Henry solubility constant Hcp” value was 0.044. In the case of `[2H]c1c([2H])c([2H])c(C(C)=O)c([2H])c1[2H]` [1-phenylethanone-d5], the “Henry solubility constant Hcp” value is reported as 2.3. For `CC(=O)c1ccccc1` [1-phenylethanone], the “Henry solubility constant Hcp” value was 0.97. For `CC(C)(Cl)Cl` [2,2-dichloropropane], the “Henry solubility constant Hcp” value was 0.00044. For `[2H]C([2H])(O)C([2H])([2H])Cl` [2-chloroethanol-d4], the “Henry solubility constant Hcp” value was 5. With `[2H]C([2H])([2H])C(=O)C([2H])([2H])CCC` [2-hexanone-1,1,1,3,3-d5] the “Henry solubility constant Hcp” value was 0.17. For `CCCCC(C)=O` [2-hexanone], the “Henry solubility constant Hcp” value was 0.15. In the case of `COCCO` [2-methoxyethanol], the “Henry solubility constant Hcp” value is reported as 4.4. With `CCCCC(C)CO` (centres undefined) [2-methyl-1-hexanol] the “Henry solubility constant Hcp” value was 0.69. In the case of `Cc1ccc2ccccc2c1` [2-methylnaphthalene], the “Henry solubility constant Hcp” value is reported as 0.035. In the case of `CC(C)O` [2-propanol], the “Henry solubility constant Hcp” value is reported as 1.1. For `C=CC#N` [2-propenenitrile], the “Henry solubility constant Hcp” value was 0.12. For `Cc1cc(C(C)(C)C)cc(C(C)(C)C)c1` [3,5-di-tert-butyltoluene], the “Henry solubility constant Hcp” value was 0.0037. In the case of `Cc1cc(Br)cc(Br)c1` [3,5-dibromotoluene], the “Henry solubility constant Hcp” value is reported as 0.017. In the case of `C=CCCl` [3-chloro-1-propene], the “Henry solubility constant Hcp” value is reported as 0.0013. With `CC(=O)CC(C)C` [4-methyl-2-pentanone] the “Henry solubility constant Hcp” value was 0.1. With `CC(C)(C)c1ccccc1` [(1,1-dimethylethyl)-benzene] the “Henry solubility constant Hcp” value was 0.0016. In the case of `CCC(C)c1ccccc1` (centres undefined) [(1-methylpropyl)-benzene], the “Henry solubility constant Hcp” value is reported as 0.0013. In the case of `CC(C)c1ccccc1` [(2-propyl)-benzene], the “Henry solubility constant Hcp” value is reported as 0.0014. For `ClC/C=C/CCl` [(E)-1,4-dichloro-2-butene], the “Henry solubility constant Hcp” value was 0.035. For `ClC/C=C\CCl` [(Z)-1,4-dichloro-2-butene], the “Henry solubility constant Hcp” value was 0.03. In the case of `ClCc1ccccc1` [(chloromethyl)-benzene], the “Henry solubility constant Hcp” value is reported as 0.02. In the case of `[2H]c1c([2H])c([2H])c([2H])c([2H])c1[2H]` [benzene-d6], the “Henry solubility constant Hcp” value is reported as 0.0018. With `c1ccccc1` [benzene] the “Henry solubility constant Hcp” value was 0.0018. In the case of `[2H]c1c([2H])c([2H])c(Br)c([2H])c1[2H]` [bromobenzene-d5], the “Henry solubility constant Hcp” value is reported as 0.0065. In the case of `Brc1ccccc1` [bromobenzene], the “Henry solubility constant Hcp” value is reported as 0.006. In the case of `ClCBr` [bromochloromethane], the “Henry solubility constant Hcp” value is reported as 0.0066. With `ClC(Cl)Br` [bromodichloromethane] the “Henry solubility constant Hcp” value was 0.0052. For `CBr` [bromomethane], the “Henry solubility constant Hcp” value was 0.0013. For `CCCCc1ccccc1` [butylbenzene], the “Henry solubility constant Hcp” value was 0.002. For `S=C=S` [carbon disulfide], the “Henry solubility constant Hcp” value was 0.00057. In the case of `[2H]c1c([2H])c([2H])c(Cl)c([2H])c1[2H]` [chlorobenzene-d5], the “Henry solubility constant Hcp” value is reported as 0.0036. In the case of `Clc1ccccc1` [chlorobenzene], the “Henry solubility constant Hcp” value is reported as 0.0037. With `CCCl` [chloroethane] the “Henry solubility constant Hcp” value was 0.00085. In the case of `[2H]C([2H])=C([2H])Cl` [chloroethene-d3], the “Henry solubility constant Hcp” value is reported as 0.00038. In the case of `C=CCl` [chloroethene], the “Henry solubility constant Hcp” value is reported as 0.00039. In the case of `Cl/C=C\CCl` [cis-1,3-dichloropropene], the “Henry solubility constant Hcp” value is reported as 0.0095. In the case of `C1CCCCC1` [cyclohexane], the “Henry solubility constant Hcp” value is reported as 0.00032. With `Fc1c(F)c(F)c(-c2c(F)c(F)c(F)c(F)c2F)c(F)c1F` [decafluorobiphenyl] the “Henry solubility constant Hcp” value was 0.0067. With `ClC(Br)Br` [dibromochloromethane] the “Henry solubility constant Hcp” value was 0.011. With `BrCBr` [dibromomethane] the “Henry solubility constant Hcp” value was 0.012. In the case of `FC(F)(Cl)Cl` [dichlorodifluoromethane], the “Henry solubility constant Hcp” value is reported as 0.00013. With `[2H]C([2H])(Cl)Cl` [dichloromethane-d2] the “Henry solubility constant Hcp” value was 0.0038. With `ClCCl` [dichloromethane] the “Henry solubility constant Hcp” value was 0.004. In the case of `[2H]C([2H])([2H])C([2H])([2H])OC([2H])([2H])C([2H])([2H])[2H]` [diethyl ether-d10], the “Henry solubility constant Hcp” value is reported as 0.013. For `CCOCC` [diethyl ether], the “Henry solubility constant Hcp” value was 0.011. For `CC#N` [ethanenitrile], the “Henry solubility constant Hcp” value was 0.6. In the case of `C=Cc1ccccc1` [ethenylbenzene], the “Henry solubility constant Hcp” value is reported as 0.0044. In the case of `CCO[13C](C)=O` [ethyl ethanoate-1-13C], the “Henry solubility constant Hcp” value is reported as 0.071. For `[2H]c1c([2H])c([2H])c(C([2H])([2H])C([2H])([2H])[2H])c([2H])c1[2H]` [ethylbenzene-d10], the “Henry solubility constant Hcp” value was 0.002. In the case of `CCc1ccccc1` [ethylbenzene], the “Henry solubility constant Hcp” value is reported as 0.002. With `Fc1ccccc1` [fluorobenzene] the “Henry solubility constant Hcp” value was 0.0016. In the case of `ClC(Cl)=C(Cl)C(Cl)=C(Cl)Cl` [hexachlorobutadiene], the “Henry solubility constant Hcp” value is reported as 0.0023. For `Fc1c(F)c(F)c(F)c(F)c1F` [hexafluorobenzene], the “Henry solubility constant Hcp” value was 0.00055. With `CI` [iodomethane] the “Henry solubility constant Hcp” value was 0.0018. In the case of `COC(C)=O` [methyl ethanoate], the “Henry solubility constant Hcp” value is reported as 0.12. In the case of `C=C(C)C(=O)OC` [methyl methacrylate], the “Henry solubility constant Hcp” value is reported as 0.043. With `[2H]c1c([2H])c([2H])c(C([2H])([2H])[2H])c([2H])c1[2H]` [methylbenzene-d8] the “Henry solubility constant Hcp” value was 0.002. With `Cc1ccccc1` [methylbenzene] the “Henry solubility constant Hcp” value was 0.0021. In the case of `[2H]C([2H])([2H])C1([2H])C([2H])([2H])C([2H])([2H])C([2H])([2H])C([2H])([2H])C1([2H])[2H]` [methylcyclohexane-d14], the “Henry solubility constant Hcp” value is reported as 0.00031. In the case of `CC1CCCCC1` [methylcyclohexane], the “Henry solubility constant Hcp” value is reported as 0.00032. With `[2H]c1c([2H])c([2H])c2c([2H])c([2H])c([2H])c([2H])c2c1[2H]` [naphthalene-d8] the “Henry solubility constant Hcp” value was 0.035. In the case of `c1ccc2ccccc2c1` [naphthalene], the “Henry solubility constant Hcp” value is reported as 0.033. For `[2H]c1c([2H])c([2H])c([N+](=O)[O-])c([2H])c1[2H]` [nitrobenzene-d5], the “Henry solubility constant Hcp” value was 0.85. With `O=[N+]([O-])c1ccccc1` [nitrobenzene] the “Henry solubility constant Hcp” value was 0.64. In the case of `ClC(Cl)C(Cl)(Cl)Cl` [pentachloroethane], the “Henry solubility constant Hcp” value is reported as 0.0059. With `Fc1cc(F)c(F)c(F)c1F` [pentafluorobenzene] the “Henry solubility constant Hcp” value was 0.00075. With `C[13C](C)=O` [propanone-2-13C] the “Henry solubility constant Hcp” value was 0.31. In the case of `CCCc1ccccc1` [propylbenzene], the “Henry solubility constant Hcp” value is reported as 0.0019. In the case of `ClC(Cl)=C(Cl)Cl` [tetrachloroethene], the “Henry solubility constant Hcp” value is reported as 0.00099. For `ClC(Cl)(Cl)Cl` [tetrachloromethane], the “Henry solubility constant Hcp” value was 0.0005. With `Cl/C=C/CCl` [trans-1,3-dichloropropene] the “Henry solubility constant Hcp” value was 0.0058. For `BrC(Br)Br` [tribromomethane], the “Henry solubility constant Hcp” value was 0.022. For `ClC=C(Cl)Cl` [trichloroethene], the “Henry solubility constant Hcp” value was 0.0012. For `ClCc1ccccc1CCl` [α,α-dichloro-o-xylene], the “Henry solubility constant Hcp” value was 0.1.
